From ChEMBL document CHEMBL1201862, “PubChem BioAssay data set” (2004)
The source made the active and inactive calls.

Assays:
[1] = molecular target: T1, Bcl-2-like protein 10 (Homo sapiens, UniProt Q9HD36); assay: Bcl-B/TR3 peptide binding disruption – biochemical, fluorescence polarization, FITC-TR3 peptide, selectivity assay for Bfl-1 inhibitor project, primary screen (AID 748);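 further: fluorescence polarization from a fluorescein-labelled TR3 peptide binding purified Bcl-B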
T1 sequence (Q9HD36 whole entry): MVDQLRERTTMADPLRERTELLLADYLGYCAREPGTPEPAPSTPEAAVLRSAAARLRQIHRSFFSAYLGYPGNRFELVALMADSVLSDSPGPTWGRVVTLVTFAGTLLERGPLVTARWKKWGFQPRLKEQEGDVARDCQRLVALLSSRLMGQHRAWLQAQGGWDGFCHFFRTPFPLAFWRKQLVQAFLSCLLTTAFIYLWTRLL

[2] = molecular target: T2, Estrogen receptor beta (Homo sapiens, UniProt Q92731);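 further: recombinant ER-beta bound to coactivator SRC1 peptide in presence of estradiol agonist; inhibitors block coactivator peptide binding and lower the FRET signal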
[3] = molecular target: T2, Estrogen receptor beta; assay: blockers of SRC-3 recruitment to ERβ – biochemical, ELISA, streptavidin-HRP readout, orthogonal assay, confirmation (AID 1060)
[4] = molecular target: T3, Leucine aminopeptidase (Plasmodium falciparum 3D7, UniProt Q8IL11); assay: P. falciparum M17LAP inhibitors, primary screen, biochemical, fluorogenic H-Leu-NHMec substrate, 1536-well (AID 1619); type: functional
T3 sequence (Q8IL11 whole entry): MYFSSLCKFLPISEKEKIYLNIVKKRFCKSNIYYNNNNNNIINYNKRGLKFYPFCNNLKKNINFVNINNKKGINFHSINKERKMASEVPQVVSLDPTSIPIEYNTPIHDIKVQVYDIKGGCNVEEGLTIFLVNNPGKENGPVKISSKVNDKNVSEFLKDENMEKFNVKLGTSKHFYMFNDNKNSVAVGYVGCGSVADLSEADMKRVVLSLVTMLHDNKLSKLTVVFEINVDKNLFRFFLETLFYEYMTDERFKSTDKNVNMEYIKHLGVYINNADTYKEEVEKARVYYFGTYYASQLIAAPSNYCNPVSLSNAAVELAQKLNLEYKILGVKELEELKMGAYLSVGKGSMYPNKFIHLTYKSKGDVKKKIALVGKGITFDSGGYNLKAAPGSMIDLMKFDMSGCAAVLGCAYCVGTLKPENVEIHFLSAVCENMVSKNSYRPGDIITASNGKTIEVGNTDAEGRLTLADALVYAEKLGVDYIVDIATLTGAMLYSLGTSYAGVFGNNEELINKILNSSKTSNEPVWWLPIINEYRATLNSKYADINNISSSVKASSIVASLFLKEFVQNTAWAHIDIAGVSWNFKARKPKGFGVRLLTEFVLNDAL

[5] = molecular target: Aspartyl aminopeptidase (Plasmodium falciparum 3D7, UniProt Q8I2J3); assay: Counterscreen for inhibitors of M1 and M17 aminopeptidases: QFRET-based biochemical high throughput dose response assay for inhibitors of the Plasmodium falciparum M18 Aspartyl Aminopeptidase (PFM18AAP). [Related PubChem assays: 1619 (Screening assay (M17LAP inhibitors).), 1445 (Screening assay (M1AAP inhibitors).)]
[6] = molecular target: Procathepsin L (Homo sapiens, UniProt P07711); assay: CTSL1 protease inhibition – biochemical, QFRET, 1536-well, counter-screen for M1/M17 aminopeptidase inhibitor project, dose response (AID 2214)
[7] = molecular target: T4, Long-chain-fatty-acid--AMP ligase FadD28 (Mycobacterium tuberculosis, UniProt P9WQ59); assay: Fluorescence polarization aasay to screen for inhibitors that compete for the binding of FadD28 to a bisubstrate Measured in Biochemical System Using Plate Reader - 2147-01_Inhibitor_Dose_CherryPick_Activity.; type: functional, Mycobacterium tuberculosis H37Rv
T4 sequence (P9WQ59 whole entry): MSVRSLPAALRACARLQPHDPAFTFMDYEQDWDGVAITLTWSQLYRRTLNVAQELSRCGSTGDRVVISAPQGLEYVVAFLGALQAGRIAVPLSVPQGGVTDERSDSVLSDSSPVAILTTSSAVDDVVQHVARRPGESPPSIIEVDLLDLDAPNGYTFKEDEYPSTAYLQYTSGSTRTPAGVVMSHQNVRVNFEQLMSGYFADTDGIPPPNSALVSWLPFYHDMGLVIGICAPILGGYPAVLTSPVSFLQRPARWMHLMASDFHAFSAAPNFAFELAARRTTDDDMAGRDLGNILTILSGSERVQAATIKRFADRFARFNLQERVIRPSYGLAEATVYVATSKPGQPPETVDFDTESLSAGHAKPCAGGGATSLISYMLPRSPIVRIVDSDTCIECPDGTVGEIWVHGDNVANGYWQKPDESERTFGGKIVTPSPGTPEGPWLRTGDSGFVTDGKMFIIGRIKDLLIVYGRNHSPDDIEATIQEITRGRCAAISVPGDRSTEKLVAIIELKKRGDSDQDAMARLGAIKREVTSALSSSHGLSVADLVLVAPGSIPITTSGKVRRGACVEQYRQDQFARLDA

[8] = mitochondrial function rescue without frataxin homolog – Friedreich's ataxia, plus single-dose screen, dose response (AID 1465); type: functional;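 further: yeast depleted of Yfh1p frataxin homolog grown on glycerol needing respiration; WST-1 tetrazolium dye reduction as measure of cellular dehydrogenase metabolic activity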
[9] = molecular target: T5, Sphingosine 1-phosphate receptor 4 (Homo sapiens, UniProt O95977); assay: Late stage fluorescence dose response cell-based screening assay for antagonists of the Sphingosine 1-Phosphate Receptor 4 (S1P4). [Related pubchem assays: 1524 (Confirmation screen (S1P4 antagonists).), 1510 (Primary screen (S1P4 antagonists).), 1853 (Summary AID (S1P4 antagonists).), 1692 (Dose response screen (S1P4 antagonists).)]; type: functional
T5 sequence (O95977 whole entry): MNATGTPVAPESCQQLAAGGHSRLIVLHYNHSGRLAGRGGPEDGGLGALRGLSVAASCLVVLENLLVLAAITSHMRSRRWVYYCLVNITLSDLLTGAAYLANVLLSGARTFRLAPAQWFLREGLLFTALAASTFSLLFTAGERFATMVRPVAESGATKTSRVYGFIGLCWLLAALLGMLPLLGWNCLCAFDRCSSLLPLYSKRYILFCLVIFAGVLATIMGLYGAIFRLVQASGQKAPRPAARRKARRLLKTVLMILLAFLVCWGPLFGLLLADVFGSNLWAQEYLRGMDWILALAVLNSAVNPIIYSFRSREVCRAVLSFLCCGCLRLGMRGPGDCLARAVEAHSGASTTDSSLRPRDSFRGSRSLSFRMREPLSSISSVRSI

[10] = molecular target: T5, Sphingosine 1-phosphate receptor 4; assay: Fluorescence dose response cell-based high throughput screening assay for antagonists of the Sphingosine 1-Phosphate Receptor 4 (S1P4). [Related pubchem assays: 1524 (Confirmation in triplicates.), 1510 (Primary screen.)]; type: functional
[11] = molecular target: Sphingosine 1-phosphate receptor 1 (Homo sapiens, UniProt P21453); type: functional;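 further: Tango beta-arrestin reporter U2OS cells stimulated with S1P near its EC80; inhibitor potency meaning antagonism of receptor activation by the natural agonist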
[12] = molecular target: FAD-linked sulfhydryl oxidase ALR (Homo sapiens, UniProt P55789); assay: ALR-catalysed DTT oxidation blockers – biochemical, H2O2 detection, luminescence, cherry-pick, dose response (AID 493248)
[13] = test system: INS1; assay: INS-1E survival protection against cytokine death – cell-based, luminescence, retest, dose response (AID 449756); type: functional; conditions: Rattus norvegicus;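 further: cell death triggered by IL-1 beta plus TNF-alpha plus IFN-gamma mixture; protective hits raise ATP signal compared with cytokine alone wells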
[14] = Fluorescence-based cell-based high throughput dose response assay for inhibitors of the interaction of nucleotide-binding oligomerization domain containing 2 (NOD2) and the receptor-interacting serine-threonine kinase 2 (RIPK2).; type: functional; conditions: Homo sapiens
[15] = molecular target: Paired box protein Pax-8 (Homo sapiens, UniProt Q06710); assay: PAX8 transcriptional activity inhibition in RMG-I – RMG-I cells, luciferase, cherry-pick, dose response (AID 687027); type: functional, cell-based;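 further: luciferase reporter driven by Pax8 target thyroperoxidase promoter measured by SteadyGlo luminescence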
[16] = A549 cell cytotoxicity, dose response, cytotoxicity control, plate reader, cherry-pick, antagonist series (AID 743412); type: functional, cell-based
[17] = toxicity toward HepG2 liver cells – cell-based, plate reader, cherry-pick, antagonist series, cytotoxicity control, dose response (AID 743416); type: functional
[18] = blockers of bursicon-stimulated LGR2 cAMP reporter – cell-based, HEK293, CRE-luciferase reporter, cherry pick, set 2, dose response (AID 743343); type: functional;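 further: transfected cells were stimulated with diluted bursicon conditioned medium after compound addition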
[19] = blockade of melanocortin 4 receptor signaling – cell-based, plate reader, cherry pick, counter-screen for LGR2 antagonist project, dose response (AID 743444); type: functional;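 further: transfected HEK 293 cells stimulated with alpha-MSH peptide; potency of inhibitors of the alpha-MSH evoked signal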
[20] = viability loss in HEK293 cells – cell-based, plate reader, cherry-picked samples, cytotoxicity control, dose response (AID 743446); type: functional

T2 sequence (Q92731 whole entry): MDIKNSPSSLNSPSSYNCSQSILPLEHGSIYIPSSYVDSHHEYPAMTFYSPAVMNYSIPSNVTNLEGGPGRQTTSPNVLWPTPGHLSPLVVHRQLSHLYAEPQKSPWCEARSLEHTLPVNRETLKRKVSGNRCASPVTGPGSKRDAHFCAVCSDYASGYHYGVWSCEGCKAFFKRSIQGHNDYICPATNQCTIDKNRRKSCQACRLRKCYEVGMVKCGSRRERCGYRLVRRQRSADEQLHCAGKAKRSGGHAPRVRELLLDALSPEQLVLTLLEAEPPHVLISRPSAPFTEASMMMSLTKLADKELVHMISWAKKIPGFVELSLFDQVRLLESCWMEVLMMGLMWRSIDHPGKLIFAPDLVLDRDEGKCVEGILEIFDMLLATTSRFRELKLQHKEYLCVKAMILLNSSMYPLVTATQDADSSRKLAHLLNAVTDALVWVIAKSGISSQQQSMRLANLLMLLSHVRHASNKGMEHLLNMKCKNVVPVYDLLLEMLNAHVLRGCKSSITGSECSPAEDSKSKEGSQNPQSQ
Sequence of FAD-linked sulfhydryl oxidase ALR (P55789 whole entry): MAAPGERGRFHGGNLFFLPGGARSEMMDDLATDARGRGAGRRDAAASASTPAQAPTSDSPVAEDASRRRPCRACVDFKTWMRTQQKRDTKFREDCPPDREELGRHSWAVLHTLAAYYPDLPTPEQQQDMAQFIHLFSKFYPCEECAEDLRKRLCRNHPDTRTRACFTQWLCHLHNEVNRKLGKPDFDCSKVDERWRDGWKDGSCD
Sequence of Aspartyl aminopeptidase (Q8I2J3 whole entry): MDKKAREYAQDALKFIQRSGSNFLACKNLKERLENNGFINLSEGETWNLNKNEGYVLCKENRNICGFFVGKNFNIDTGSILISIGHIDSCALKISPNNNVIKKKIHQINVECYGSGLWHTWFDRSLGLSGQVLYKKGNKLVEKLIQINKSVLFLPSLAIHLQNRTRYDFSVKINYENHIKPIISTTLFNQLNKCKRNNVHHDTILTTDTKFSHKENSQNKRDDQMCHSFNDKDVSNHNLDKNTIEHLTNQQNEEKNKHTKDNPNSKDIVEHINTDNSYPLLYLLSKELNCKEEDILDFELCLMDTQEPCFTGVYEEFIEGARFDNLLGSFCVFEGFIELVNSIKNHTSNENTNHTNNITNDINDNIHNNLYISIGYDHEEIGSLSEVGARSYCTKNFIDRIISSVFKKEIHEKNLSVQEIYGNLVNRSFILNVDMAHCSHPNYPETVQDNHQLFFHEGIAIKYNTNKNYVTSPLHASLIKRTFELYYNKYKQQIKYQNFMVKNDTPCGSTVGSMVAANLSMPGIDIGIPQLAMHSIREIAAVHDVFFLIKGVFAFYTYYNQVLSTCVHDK
Sequence of Sphingosine 1-phosphate receptor 1 (P21453 whole entry): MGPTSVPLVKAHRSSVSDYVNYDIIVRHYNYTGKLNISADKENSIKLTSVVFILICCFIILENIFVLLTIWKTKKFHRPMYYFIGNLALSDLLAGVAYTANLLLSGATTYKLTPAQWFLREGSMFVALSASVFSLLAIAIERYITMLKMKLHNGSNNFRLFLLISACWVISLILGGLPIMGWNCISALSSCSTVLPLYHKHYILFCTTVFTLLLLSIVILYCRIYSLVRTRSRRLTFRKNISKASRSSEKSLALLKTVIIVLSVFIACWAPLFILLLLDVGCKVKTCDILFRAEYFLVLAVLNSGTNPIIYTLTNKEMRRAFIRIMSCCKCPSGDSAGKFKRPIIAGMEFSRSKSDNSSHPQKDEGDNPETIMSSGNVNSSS
Sequence of Procathepsin L (P07711 whole entry): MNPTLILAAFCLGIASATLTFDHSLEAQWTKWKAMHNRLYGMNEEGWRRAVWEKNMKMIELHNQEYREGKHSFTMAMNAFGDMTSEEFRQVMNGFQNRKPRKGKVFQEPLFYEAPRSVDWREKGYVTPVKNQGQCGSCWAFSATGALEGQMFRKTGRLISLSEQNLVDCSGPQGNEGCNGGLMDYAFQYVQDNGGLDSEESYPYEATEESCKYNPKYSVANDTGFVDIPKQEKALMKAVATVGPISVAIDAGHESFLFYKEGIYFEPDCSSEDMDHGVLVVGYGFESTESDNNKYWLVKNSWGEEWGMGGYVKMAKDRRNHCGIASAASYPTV
Sequence of Paired box protein Pax-8 (Q06710 whole entry): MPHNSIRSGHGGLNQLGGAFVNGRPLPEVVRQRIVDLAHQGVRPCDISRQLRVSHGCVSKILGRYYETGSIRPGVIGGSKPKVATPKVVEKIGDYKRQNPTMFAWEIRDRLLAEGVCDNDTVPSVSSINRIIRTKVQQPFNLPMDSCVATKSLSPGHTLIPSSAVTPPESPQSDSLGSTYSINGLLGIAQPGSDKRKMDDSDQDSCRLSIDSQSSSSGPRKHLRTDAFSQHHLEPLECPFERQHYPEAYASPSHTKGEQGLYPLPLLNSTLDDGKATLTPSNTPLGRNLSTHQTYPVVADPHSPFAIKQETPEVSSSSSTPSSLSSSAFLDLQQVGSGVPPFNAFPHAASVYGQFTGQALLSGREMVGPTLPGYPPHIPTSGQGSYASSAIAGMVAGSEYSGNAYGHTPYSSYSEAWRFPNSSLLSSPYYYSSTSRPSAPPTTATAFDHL

In the case of `O=C(COC(=O)c1cccs1)NCc1ccco1`, the IC50 [1] is reported as 85.1 µM (inactive), the IC50 [2] is reported as > 50 µM (not active) and the IC50 [3] is reported as 8.95 µM (not active).

In the case of `CCOc1ccc(NC(=O)C2C(C(=O)O)C3(Cl)C(Cl)=C(Cl)C2(Cl)C3(Cl)Cl)cc1` (stereo not given), the IC50 [4] is reported as < 1 µM (active), the IC50 [5] is reported as > 73.5 µM (not active) and the IC50 [6] is reported as > 59.6 µM (not active). For the same compound, the AC50 [7] was 11.5 µM (active).

In the case of `CCCC(C(=O)O)N1C(=O)/C(=C/c2cccn2C)SC1=S` (stereo not given), the EC50 [8] is reported as > 100 µM (active).

For `COc1ccc([N+](=O)[O-])c(S(=O)(=O)c2ccccc2)n1`, the IC50 [9] was 1.42 µM (not active), the IC50 [10] was 0.691 µM (active) and the IC50 [11] was 7.19 µM (active). For the same compound, the AC50 [12] was 0.501 µM (active), the AC50 [13] was 7.12 µM (active) and the IC50 [14] was 3.15 µM (active). For the same compound, the AC50 [15] was 8.18 µM (active), the AC50 [16] was 8.75 µM (active) and the AC50 [17] was 7.56 µM (active). The AC50 [18] was 4.61 µM (active), the AC50 [19] was 4.27 µM (active) and the AC50 [20] was 8.06 µM (active).
